Assay results as given in PMC4871228 (European journal of medicinal chemistry, 2015).
Where two headings read alike, the source gives them in different places.

Key:
KAT8 [1] = molecular target: T1, KAT8 (Homo sapiens, UniProt Q9H7Z6); assay: KAT8 inhibition, fluorescence-based assay detecting CoA with CPM; assay type: biochemical; conditions: within the investigated range of concentrations (up to 400 µM)
T1 sequence (Q9H7Z6 1-458): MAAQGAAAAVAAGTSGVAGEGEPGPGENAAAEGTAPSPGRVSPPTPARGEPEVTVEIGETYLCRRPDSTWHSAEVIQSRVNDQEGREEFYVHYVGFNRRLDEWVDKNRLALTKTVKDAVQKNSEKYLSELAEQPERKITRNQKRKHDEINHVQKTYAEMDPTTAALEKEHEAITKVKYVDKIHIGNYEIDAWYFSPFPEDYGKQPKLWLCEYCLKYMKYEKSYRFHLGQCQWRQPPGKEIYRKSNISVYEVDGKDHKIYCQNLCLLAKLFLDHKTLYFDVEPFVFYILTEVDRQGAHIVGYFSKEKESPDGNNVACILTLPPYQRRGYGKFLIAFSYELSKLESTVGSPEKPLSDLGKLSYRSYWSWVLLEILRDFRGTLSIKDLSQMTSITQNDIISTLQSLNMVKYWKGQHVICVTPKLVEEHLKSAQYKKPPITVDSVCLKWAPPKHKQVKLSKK

KAT8 [2] = molecular target: T1, KAT8; assay: Isothermal titration calorimetry, titration to KAT8; assay type: binding; conditions: ITC, Ac-CoA vs KAT8
KAT8 [3] = molecular target: T1, KAT8; assay: Steady-state enzyme kinetics of KAT8 substrates; assay type: biochemical; conditions: for Km: read-out: Km of Ac-CoA

With `CCCCCCCSCC(=O)c1ccccc1O` [Compound 13] the “KAT8 inhibitory potency (in words)” value (KAT8 [1]) was “completely removed activity”.
For `CCCCCc1ccc(O)c(C(=O)O)c1` [Compound 11c], the “KAT8 inhibitory potency (in words)” value (KAT8 [1]) was “completely lose their affinity”.
For `O=C(O)c1c(O)cccc1CCCCCCCCCCCO` [Compound 8b], the “KAT8 inhibitory potency (in words)” value (KAT8 [1]) was “loss of potency”.
For `CCCCCc1cccc(O)c1C(=O)O` [Compound 14], the “KAT8 inhibitory potency (in words)” value (KAT8 [1]) was “completely lose their affinity”.
`CC(=O)SCCNC(=O)CCNC(=O)[C@H](O)C(C)(C)COP(=O)(O)OP(=O)(O)OC[C@H]1O[C@@H](n2cnc3c(N)ncnc32)[C@H](O)[C@@H]1OP(=O)(O)O` [Ac-CoA, acetyl coenzyme A] was tested, and the “-TΔS” value (KAT8 [2]) was −17228 cal/mol/degK, the Kd (KAT8 [2]) was 8.7 ± 1.2 µM and the “N (stoichiometry)” value (KAT8 [2]) was 0.95. For the same compound, the ΔG (KAT8 [2]) was −6758, the ΔH (KAT8 [2]) was 10.47 ± 0.47 kcal/mol and the “Vmax of Ac-CoA” value (KAT8 [3]; 15 µM histone H4 peptide) was 3.4 ± 0.2 pmol/min. For the same compound, the “kcat of Ac-CoA” value (KAT8 [3]; 15 µM histone H4 peptide) was 0.0033 ± 0.00033 s⁻¹, the “Vmax of Ac-CoA” value (KAT8 [3]; 30 µM histone H4 peptide) was 4.5 ± 0.3 pmol/min and the “kcat of Ac-CoA” value (KAT8 [3]; 30 µM histone H4 peptide) was 0.005 ± 0.00033 s⁻¹. For the same compound, the “Vmax of Ac-CoA” value (KAT8 [3]; 60 µM histone H4 peptide) was 9.9 ± 0.3 pmol/min, the “kcat of Ac-CoA” value (KAT8 [3]; 60 µM histone H4 peptide) was 0.012 ± 0.00067 s⁻¹ and the “Vmax of Ac-CoA” value (KAT8 [3]; 90 µM histone H4 peptide) was 14.7 ± 0.6 pmol/min. For the same compound, the “kcat of Ac-CoA” value (KAT8 [3]; 90 µM histone H4 peptide) was 0.0183 ± 0.001 s⁻¹, the Km (KAT8 [3]; 15 µM histone H4 peptide) was 1.1 ± 0.3 µM and the Km (KAT8 [3]; 30 µM histone H4 peptide) was 1.2 ± 0.3 µM. For the same compound, the Km (KAT8 [3]; 60 µM histone H4 peptide) was 2.1 ± 0.3 µM and the Km (KAT8 [3]; 90 µM histone H4 peptide) was 2.8 ± 0.5 µM.
